Measured values from US10414763B2 (CANCER RESEARCH TECHNOLOGY LIMITED, priority 2014, dated 2019).

Target: T1, full-length human PKCι (Homo sapiens, UniProt P41743)
T1 construct: Recombinant, full-length human PKCι expressed in Sf21 insect cells is also commercially available; purchased EMD Millipore; host or cells: Sf21 insect cells (baculovirus)
T1 sequence (P41743 1-596): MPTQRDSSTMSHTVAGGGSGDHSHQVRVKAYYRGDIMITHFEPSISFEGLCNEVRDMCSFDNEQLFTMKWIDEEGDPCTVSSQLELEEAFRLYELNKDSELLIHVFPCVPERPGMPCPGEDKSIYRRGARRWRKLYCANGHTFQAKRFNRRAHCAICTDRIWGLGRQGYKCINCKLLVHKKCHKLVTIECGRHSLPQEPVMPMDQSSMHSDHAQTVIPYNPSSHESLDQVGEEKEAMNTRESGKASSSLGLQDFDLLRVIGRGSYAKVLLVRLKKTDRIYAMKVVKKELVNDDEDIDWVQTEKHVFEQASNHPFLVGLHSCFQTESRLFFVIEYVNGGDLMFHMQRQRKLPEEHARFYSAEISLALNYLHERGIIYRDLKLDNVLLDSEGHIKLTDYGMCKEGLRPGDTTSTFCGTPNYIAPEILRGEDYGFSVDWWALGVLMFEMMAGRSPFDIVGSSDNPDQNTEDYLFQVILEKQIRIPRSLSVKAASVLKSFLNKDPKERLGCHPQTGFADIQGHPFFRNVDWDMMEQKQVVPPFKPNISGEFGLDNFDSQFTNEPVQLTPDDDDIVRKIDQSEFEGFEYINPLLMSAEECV
Assay: PKCι IC50 IMAP fluorescence polarisation assay, full-length enzyme, 150 μM ATP
Format: biochemical
Conditions: read-out: IC50 in IMAP assay against full length PKCi at 150 μM ATP
From the text: Assays are based on the ability of PKCι to phosphorylate a commercially available peptide substrate in vitro. The peptide substrate is FAM-PKCε pseudopeptide derived peptide, and comprises the amino acid sequence 5FAM-ERMRPRKRQGSVRRRV-NH2. Recombinant, full-length human PKCι expressed in Sf21 insect cells is also commercially available. Recombinant, kinase-domain human PKCι is expressed and purified in-house.
The procedure below explains how dose response curves for inhibitors of PKCι are obtained. The screen described is for a 384 well format but the assay can be adapted to 1536 or other formats as required.
Compounds to be tested are dissolved in 100% DMSO. Compounds are diluted as required to give a final concentration of 4% DMSO (v/v) in the assay. 1 μl is plated into 384 well black low-binding flat bottomed assay plates which are used immediately. Dilutions and additions of compound to assay plates are carried out using Matrix WellMate® and Matrix PlateMate® Plus liquid handling systems.
On the day of the screen PKCι/substrate working solution, and ATP working solution, are prepared in buffer containing 20 mM tris-HCl pH7.5, 10 mM MgCl2, 0.01% Triton X100, 250 μM EGTA and 1 mM DTT. The final concentration of PKCι used varies depending on the batch of protein but is typically 15 pM. The final concentration of peptide substrate in the assay is 100 nM. ATP is used at a final concentration of 150 μM or 25 μM in the assays containing full-length or kinase-domain PKCι respectively, which corresponds to five times or equal to the KM^APP for ATP for each enzyme, respectively. The final buffer concentration in the assay is 18 mM tris-HCl pH7.5, 9 mM MgCl2, 0.009% Triton X100, 225 μM EGTA and 0.9 mM DTT. Relevant controls are included, namely no compound and no enzyme. 5 μl PKCι/substrate working solution at 30 pM and 200 nM, respectively, is added to the wells, followed by 4 μl ATP working solution at 375 μM or 62.5 μM for full-length or kinase-domain PKCι respectively, using a 16 channel Matrix pipette. The reaction is allowed to incubate for 60 minutes at room temperature, before the reaction is stopped and developed by the addition of 20 μl IMAP™ development reagent (Molecular Devices). IMAP development reagent consists of 0.25% (v/v) IMAP progressive binding reagent, 17% (v/v) IMAP progressive binding buffer A and 3% (v/v) IMAP progressive binding buffer B. The plates are then incubated for 2 hours at room temperature before being read using an appropriate plate reader, for example a Molecular Devices HT Analyst or a BMG Pherastar. Plates are read using a fluorescence polarisation protocol with excitation at 485 nm and emission at 530 nm, and dichroic mirror at 505 nm.
Percentage inhibition values are calculated from fluorescence polarisation values, using the no compound and no enzyme control values as 0% and 100% inhibition, respectively. IC50 determination is performed with ExcelFit software (IDBS) using curve fit 205. Z′ factors are determined for each plate tested and are all above 0.5.
Alternatively, compounds were tested for their ability to inhibit the kinase activity of recombinant human baculovirus-expressed PKCiota using the immobilized metal-ion affinity particle (IMAP®) fluorescence polarization detection system (Molecular Devices, Sunnyvale, Calif.). PKCiota/IMAP® substrate mixture (2×) was prepared in 1×IMAP assay buffer (Molecular Devices) containing 1 mM DTT so that the final assay concentrations were 15 pM PKCiota (EMD Millipore, Billerica, Mass.) and 100 nM 5-fluorescein-amidite (FAM)-PKC ? -pseudosubstrate (5-FAM-ERMRPRKRQGSVRRRV-NH2) (Molecular Devices). The 2× working solution was added at 5 μL/well into a 384-well black, non-binding, flat bottom assay plate (Corning, Corning, N.Y.). […]

Row | SMILES | IC50
1 | O[C@H]1CNC[C@@H]1Nc1nc(-c2ccnc(Nc3nc(F)ccc3F)c2)nc2cncc(C3CCC3)c12 (racemic) [Example 285, rac-(3S,4S)-4-{5-Cyclobutyl-2-[2-(3,6-difluoro-pyridin-2-ylamino)-pyridin-4-yl]-pyrido[3,4-d]pyrimidin-4-ylamino}-pyrrolidin-3-ol] | < 100 nM
2 | O[C@@H]1CNCC[C@H]1Nc1nc(-c2ccnc(Nc3ncccc3F)c2)nc2cncc(C3CCC3)c12 (racemic) [Example 286, rac-(3R,4R)-4-{5-Cyclobutyl-2-[2-(3-fluoro-pyridin-2-ylamino)-pyridin-4-yl]-pyrido[3,4-d]pyrimidin-4-ylamino}-piperidin-3-ol] | < 100 nM
3 | O[C@@H]1CNCC[C@H]1Nc1nc(-c2ccnc(Nc3ncc(F)cc3F)c2)nc2cncc(C3CCC3)c12 (racemic) [Example 287, rac-(3R,4R)-4-{5-Cyclobutyl-2-[2-(3,5-difluoro-pyridin-2-ylamino)-pyridin-4-yl]-pyrido[3,4-d]pyrimidin-4-ylamino}-piperidin-3-ol] | < 100 nM
4 | C[C@@H]1CNCC[C@H]1Nc1nc(-c2ccnc(Nc3ncccc3F)c2)nc2cncc(C3CCC3)c12 (racemic) [Example 289, {5-Cyclobutyl-2-[2-(3-fluoro-pyridin-2-ylamino)-pyridin-4-yl]-pyrido[3,4-d]pyrimidin-4-yl}-(rac-(3R,4R)-3-methyl-piperidin-4-yl)-amine] | < 100 nM
5 | C[C@@H]1CNCC[C@H]1Nc1nc(-c2ccnc(Nc3ncc(F)cc3F)c2)nc2cncc(C3CCC3)c12 (racemic) [Example 290, {5-Cyclobutyl-2-[2-(3,5-difluoro-pyridin-2-ylamino)-pyridin-4-yl]-pyrido[3,4-d]pyrimidin-4-yl}-(rac-(3R,4R)-3-methyl-piperidin-4-yl)-amine] | < 100 nM
6 | C[C@@H]1CNCC[C@H]1Nc1nc(-c2ccnc(Nc3nc(F)cc(F)c3F)c2)nc2cncc(C3CCC3)c12 (racemic) [Example 291, {5-Cyclobutyl-2-[2-(3,4,6-trifluoro-pyridin-2-ylamino)-pyridin-4-yl]-pyrido[3,4-d]pyrimidin-4-yl}-(rac-(3R,4R)-3-methyl-piperidin-4-yl)-amine] | < 100 nM
7 | O[C@H]1CNCC[C@H]1Nc1nc(-c2ccnc(Nc3ncccc3F)c2)nc2cncc(C3CCC3)c12 (racemic) [Example 292, rac-(3S,4R)-4-{5-Cyclobutyl-2-[2-(3-fluoro-pyridin-2-ylamino)-pyridin-4-yl]-pyrido[3,4-d]pyrimidin-4-ylamino}-piperidin-3-ol] | < 100 nM
8 | O[C@H]1CNCC[C@H]1Nc1nc(-c2ccnc(Nc3ncc(F)cc3F)c2)nc2cncc(C3CCC3)c12 (racemic) [Example 293, rac-(3S,4R)-4-{5-Cyclobutyl-2-[2-(3,5-difluoro-pyridin-2-ylamino)-pyridin-4-yl]-pyrido[3,4-d]pyrimidin-4-ylamino}-piperidin-3-ol] | < 100 nM
9 | O[C@H]1CNCC[C@H]1Nc1nc(-c2ccnc(Nc3nc(F)cc(F)c3F)c2)nc2cncc(C3CCC3)c12 (racemic) [Example 294, rac-(3S,4R)-4-{5-Cyclobutyl-2-[2-(3,4,6-trifluoro-pyridin-2-ylamino)-pyridin-4-yl]-pyrido[3,4-d]pyrimidin-4-ylamino}-piperidin-3-ol] | < 100 nM

Second part, the compound after the results:

Row | IC50 | SMILES
10 | < 100 nM | C[C@@]1(O)CNCC[C@H]1Nc1nc(-c2ccnc3[nH]c4ccccc4c23)nc2cncc(C3CC3)c12 (racemic) [Example 247, rac-(3R,4R)-4-[5-Cyclopropyl-2-(9H-pyrido[2,3-b]indol-4-yl)-pyrido[3,4-d]pyrimidin-4-ylamino]-3-methyl-piperidin-3-ol]
11 | < 100 nM | COc1cncc2nc(-c3ccnc(Nc4nc(F)ccc4F)c3)nc(NC3CCNCC3(C)C)c12 (racemic) [Example 261, rac-2-[2-[(3,6-difluoro-2-pyridyl)amino]-4-pyridyl]-N-(3,3-dimethyl-4-piperidyl)-5-methoxy-pyrido[3,4-d]pyrimidin-4-amine]
12 | < 100 nM | C[C@H]1CNCC[C@@H]1Nc1nc(-c2ccnc3[nH]c(C(F)(F)F)cc23)nc2cncc(C3CCC3)c12 (racemic) [Example 262]
13 | < 100 nM | C[C@@H]1CNCC[C@@H]1Nc1nc(-c2ccnc3[nH]c(C(F)(F)F)cc23)nc2cncc(C3CCC3)c12 (racemic) [Example 263]
14 | < 100 nM | O[C@H]1CNCC[C@H]1Nc1nc(-c2ccnc(Nc3ccc4ccccc4n3)c2)nc2cncc(C3CCC3)c12 (racemic) [Example 270, rac-(3S,4R)-4-{5-Cyclobutyl-2-[2-(quinolin-2-ylamino)-pyridin-4-yl]-pyrido[3,4-d]pyrimidin-4-ylamino}-piperidin-3-ol]
15 | < 100 nM | O[C@@H]1CNCC[C@H]1Nc1nc(-c2ccnc(Nc3ccc4ccccc4n3)c2)nc2cncc(C3CCC3)c12 (racemic) [Example 273, rac-(3R,4R)-4-{5-Cyclobutyl-2-[2-(quinolin-2-ylamino)-pyridin-4-yl]-pyrido[3,4-d]pyrimidin-4-ylamino}-piperidin-3-ol]
16 | < 100 nM | C[C@@H]1CNCC[C@@H]1Nc1nc(-c2ccnc(Nc3nc4ccccn4n3)c2)nc2cncc(C3CCC3)c12 (racemic) [Example 276, {5-Cyclobutyl-2-[2-([1,2,4]triazolo[1,5-a]pyridin-2-ylamino)-pyridin-4-yl]-pyrido[3,4-d]pyrimidin-4-yl}-(rac-(3R,4S)-3-methyl-piperidin-4-yl)-amine]
17 | < 100 nM | C[C@@H]1CNCC[C@H]1Nc1nc(-c2ccnc(Nc3nc4ccccn4n3)c2)nc2cncc(C3CCC3)c12 (racemic) [Example 277, {5-Cyclobutyl-2-[2-([1,2,4]triazolo[1,5-a]pyridin-2-ylamino)-pyridin-4-yl]-pyrido[3,4-d]pyrimidin-4-yl}-(rac-(3R,4R)-3-methyl-piperidin-4-yl)-amine]
18 | < 100 nM | C[C@@H]1CNCC[C@@H]1Nc1nc(-c2ccnc(Nc3ncccc3F)c2)nc2cncc(C3CCC3)c12 (racemic) [Example 282, {5-Cyclobutyl-2-[2-(3-fluoro-pyridin-2-ylamino)-pyridin-4-yl]-pyrido[3,4-d]pyrimidin-4-yl}-(rac-(3R,4S)-3-methyl-piperidin-4-yl)-amine]
19 | < 100 nM | C[C@@H]1CNCC[C@@H]1Nc1nc(-c2ccnc(Nc3ncc(F)cc3F)c2)nc2cncc(C3CCC3)c12 (racemic) [Example 283, {5-Cyclobutyl-2-[2-(3,5-difluoro-pyridin-2-ylamino)-pyridin-4-yl]-pyrido[3,4-d]pyrimidin-4-yl}-(rac-(3R,4S)-3-methyl-piperidin-4-yl)-amine]
